What all share (assay type): cell-based
The target in one experiment is T1, Ba/F3 cells with EGFR WT (Homo sapiens, UniProt P00533).
T1 construct: expressed in transfected cells; host or cells: Ba/F3 (murine pro-B cells), retroviral transduction, puromycin selection, maintained with EGF
Nature of the experiment: EGFR activity: Ba/F3 cell viability (CellTiter-Glo, 72 h), EGFR WT. As to conditions: read-out: BaF3 WT IC50. (Cellular ATP, detected with luciferase, serves as a proxy for viable cell number.)

A further experiment deals with T2, pEGFR in CUTO14 cells (Homo sapiens, UniProt P00533, DUP767-769).
T2 construct: endogenous in cells; host or cells: CUTO14 cells
Put plainly: Inhibitor activity on EGFR phosphorylation (pEGFR AlphaLISA, 2 h), CUTO14 cells. The procedure:
CUTO14 cells were obtained from Dr. Robert C. Doebele at the University of Colorado.
Shake 350 rpm for 1 hr in the dark • 3.4 Prepare donor mix under low light conditions prior to use. Dispense 5 μL of donor mix to all the wells. Mix well on the shaker, seal and wrap in aluminum foil and incubate 1.5 hrs at room temperature in the dark • 3.5 Transfer 18.5 μL mixture to OptiPlate 384, and read using an Envision.
(Alpha assays give light when donor and acceptor beads are brought close together.)

Experiment [1] concerns the target T3, Ba/F3 cells with EGFR exon 20 NPG Ins D770_N771 (Homo sapiens, UniProt P00533, INS770NPG).
T3 construct: expressed in transfected cells; host or cells: Ba/F3 (murine pro-B cells), retroviral transduction, puromycin selection, IL3-independent pool
Nature of the experiment: EGFR activity: Ba/F3 cell viability (CellTiter-Glo, 72 h), EGFR exon 20 NPG insertion. As to conditions: EGFR exon 20 NPG Ins D770_N771, cell viability, read-out: BaF3 NPG IC50.

The target in experiment [2] is T4, Ba/F3 cells with EGFR exon 20 ASV Ins V769_D770 (Homo sapiens, UniProt P00533, INS769ASV).
T4 construct: expressed in transfected cells; host or cells: Ba/F3 (murine pro-B cells), retroviral transduction, puromycin selection, IL3-independent pool
Put plainly: EGFR activity: Ba/F3 cell viability (CellTiter-Glo, 72 h), EGFR exon 20 ASV insertion. As to conditions: EGFR exon 20 ASV Ins V769_D770, cell viability, read-out: BaF3 ASV IC50.

pIC50: −log10 of the molar value. Some results are limits rather than exact numbers.

T3 sequence (P00533 with tags, fused parts or gaps INS770NPG): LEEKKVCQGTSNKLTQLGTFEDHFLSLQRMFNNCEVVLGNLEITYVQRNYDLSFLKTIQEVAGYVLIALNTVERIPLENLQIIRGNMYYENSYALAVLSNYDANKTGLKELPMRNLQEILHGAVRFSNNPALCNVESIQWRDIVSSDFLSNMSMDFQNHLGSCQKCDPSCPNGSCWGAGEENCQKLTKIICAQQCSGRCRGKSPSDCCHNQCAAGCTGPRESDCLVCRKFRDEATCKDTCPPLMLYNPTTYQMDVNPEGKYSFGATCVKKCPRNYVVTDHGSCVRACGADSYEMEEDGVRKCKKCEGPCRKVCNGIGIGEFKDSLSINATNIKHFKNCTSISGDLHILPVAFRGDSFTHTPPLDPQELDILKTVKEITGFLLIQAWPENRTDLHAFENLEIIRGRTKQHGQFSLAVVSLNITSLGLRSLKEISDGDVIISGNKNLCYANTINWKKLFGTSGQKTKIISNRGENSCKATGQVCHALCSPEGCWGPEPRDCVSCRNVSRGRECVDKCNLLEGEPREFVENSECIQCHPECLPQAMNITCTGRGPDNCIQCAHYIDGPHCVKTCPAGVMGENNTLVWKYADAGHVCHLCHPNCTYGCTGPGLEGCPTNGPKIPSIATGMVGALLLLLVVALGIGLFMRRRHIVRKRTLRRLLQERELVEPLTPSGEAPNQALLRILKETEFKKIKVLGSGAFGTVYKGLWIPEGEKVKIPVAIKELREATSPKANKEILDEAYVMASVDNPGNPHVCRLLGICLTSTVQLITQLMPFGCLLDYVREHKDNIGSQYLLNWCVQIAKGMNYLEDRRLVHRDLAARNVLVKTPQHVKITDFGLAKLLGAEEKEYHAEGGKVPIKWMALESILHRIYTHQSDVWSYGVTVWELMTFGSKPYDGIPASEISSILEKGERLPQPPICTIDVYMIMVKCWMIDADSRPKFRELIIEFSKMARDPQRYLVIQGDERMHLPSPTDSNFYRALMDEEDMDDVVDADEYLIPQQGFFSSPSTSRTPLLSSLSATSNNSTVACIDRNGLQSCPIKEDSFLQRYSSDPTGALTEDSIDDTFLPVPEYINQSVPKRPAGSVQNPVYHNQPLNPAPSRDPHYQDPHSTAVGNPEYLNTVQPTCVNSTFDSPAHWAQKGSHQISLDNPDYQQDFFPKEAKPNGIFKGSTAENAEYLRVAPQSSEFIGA
T1 sequence (P00533 25-1210): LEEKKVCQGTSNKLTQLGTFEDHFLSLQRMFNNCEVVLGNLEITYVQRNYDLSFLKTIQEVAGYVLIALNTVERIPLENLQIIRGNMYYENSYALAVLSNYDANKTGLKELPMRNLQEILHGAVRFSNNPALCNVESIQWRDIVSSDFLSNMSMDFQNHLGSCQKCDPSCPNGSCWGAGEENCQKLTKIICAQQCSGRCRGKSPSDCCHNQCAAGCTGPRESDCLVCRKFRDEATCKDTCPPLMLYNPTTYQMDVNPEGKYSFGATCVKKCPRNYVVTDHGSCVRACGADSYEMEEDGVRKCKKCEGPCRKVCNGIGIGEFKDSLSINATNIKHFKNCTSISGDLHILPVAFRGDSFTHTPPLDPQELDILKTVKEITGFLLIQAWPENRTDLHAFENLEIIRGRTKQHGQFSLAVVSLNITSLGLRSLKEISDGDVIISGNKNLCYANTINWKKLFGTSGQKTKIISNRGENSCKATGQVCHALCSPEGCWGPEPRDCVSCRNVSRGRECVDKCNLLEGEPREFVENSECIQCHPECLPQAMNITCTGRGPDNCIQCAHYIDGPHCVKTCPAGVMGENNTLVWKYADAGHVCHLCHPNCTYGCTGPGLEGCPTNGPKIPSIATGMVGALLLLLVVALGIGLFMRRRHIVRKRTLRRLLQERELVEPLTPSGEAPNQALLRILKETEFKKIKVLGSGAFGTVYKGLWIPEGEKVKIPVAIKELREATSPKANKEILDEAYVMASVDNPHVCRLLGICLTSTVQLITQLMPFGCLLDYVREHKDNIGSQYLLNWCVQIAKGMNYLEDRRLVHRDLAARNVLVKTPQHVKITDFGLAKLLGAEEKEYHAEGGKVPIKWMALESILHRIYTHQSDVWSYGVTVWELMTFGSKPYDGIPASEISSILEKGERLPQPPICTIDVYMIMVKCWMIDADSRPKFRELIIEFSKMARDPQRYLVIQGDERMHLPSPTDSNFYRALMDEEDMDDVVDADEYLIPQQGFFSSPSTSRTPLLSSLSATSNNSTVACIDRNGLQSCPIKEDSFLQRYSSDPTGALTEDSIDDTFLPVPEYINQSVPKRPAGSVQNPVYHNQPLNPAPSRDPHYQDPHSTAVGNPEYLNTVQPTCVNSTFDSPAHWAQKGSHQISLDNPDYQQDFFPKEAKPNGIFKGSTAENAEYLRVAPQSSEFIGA
T4 sequence (P00533 with tags, fused parts or gaps INS769ASV): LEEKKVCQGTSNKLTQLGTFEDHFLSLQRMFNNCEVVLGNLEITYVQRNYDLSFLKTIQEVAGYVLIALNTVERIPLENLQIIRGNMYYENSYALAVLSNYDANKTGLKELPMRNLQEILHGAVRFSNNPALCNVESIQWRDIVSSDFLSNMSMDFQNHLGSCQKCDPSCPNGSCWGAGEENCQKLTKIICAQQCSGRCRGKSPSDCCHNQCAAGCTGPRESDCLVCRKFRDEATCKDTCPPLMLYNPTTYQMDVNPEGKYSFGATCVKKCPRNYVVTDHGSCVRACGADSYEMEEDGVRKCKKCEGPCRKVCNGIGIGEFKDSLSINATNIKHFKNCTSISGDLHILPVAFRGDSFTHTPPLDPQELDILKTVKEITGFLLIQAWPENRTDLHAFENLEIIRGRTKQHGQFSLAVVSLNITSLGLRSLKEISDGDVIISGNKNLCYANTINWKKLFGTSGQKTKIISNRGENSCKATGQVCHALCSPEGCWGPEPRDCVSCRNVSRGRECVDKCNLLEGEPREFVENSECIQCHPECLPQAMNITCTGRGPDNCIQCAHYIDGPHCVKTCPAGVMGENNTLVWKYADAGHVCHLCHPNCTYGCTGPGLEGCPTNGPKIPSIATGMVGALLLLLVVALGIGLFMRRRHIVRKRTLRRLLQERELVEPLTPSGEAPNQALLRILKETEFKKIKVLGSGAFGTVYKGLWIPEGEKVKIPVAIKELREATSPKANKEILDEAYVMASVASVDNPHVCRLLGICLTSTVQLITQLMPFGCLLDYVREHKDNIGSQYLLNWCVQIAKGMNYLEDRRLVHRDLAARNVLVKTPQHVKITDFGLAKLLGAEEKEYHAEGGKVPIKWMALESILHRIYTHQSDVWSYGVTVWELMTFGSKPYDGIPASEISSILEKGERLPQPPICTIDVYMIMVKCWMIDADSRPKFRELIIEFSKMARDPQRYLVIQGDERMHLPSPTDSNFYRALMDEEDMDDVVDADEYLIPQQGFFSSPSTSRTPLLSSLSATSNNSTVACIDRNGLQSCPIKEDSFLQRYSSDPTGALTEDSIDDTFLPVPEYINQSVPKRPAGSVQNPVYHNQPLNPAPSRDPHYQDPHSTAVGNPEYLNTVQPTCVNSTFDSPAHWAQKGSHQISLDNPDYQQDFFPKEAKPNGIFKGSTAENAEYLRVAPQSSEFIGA
T2 sequence (P00533 with tags, fused parts or gaps DUP767-769): as the sequence (P00533 with tags, fused parts or gaps INS769ASV) above

As to `C=CC(=O)N1[C@H](C#Cc2cnccc2-c2[nH]c3c(c2Nc2cccc(Cl)c2OC)C(=O)NCC3)CC[C@@H]1C` [compound 240, 3-[(3-chloro-2-methoxyphenyl)amino]-2-(3-{2-[(2S,5S)-5-methyl-1-(prop-2-enoyl)pyrrolidin-2-yl]ethynyl}pyridin-4-yl)-1H,5H,6H,7H-pyrrolo[3,2-c]pyridin-4-one], the negative-log IC50 (pIC50) (on Ba/F3 cells with EGFR WT; at pEGFR in CUTO14 cells; in experiment [1]; in experiment [2]) was more than 7.00 each time.
Take `CC#CC(=O)N1CC[C@@H]1COc1cnccc1-c1[nH]c2c(c1Nc1cc(F)cc(Cl)c1OC)C(=O)NCC2` [compound 346]: the pIC50 at Ba/F3 cells with EGFR WT was 6.00 to 7.00; against pEGFR in CUTO14 cells, more than 7.00; in experiment [1], more than 7.00; in experiment [2], more than 7.00.
With `COc1c(F)cccc1Nc1c(-c2ccncc2C#CC(C)(C)NC(=O)/C=C/CN[C@@H]2CCOC2)[nH]c2c1C(=O)NCC2` [compound 394], the pIC50 was less than 6.00 at Ba/F3 cells with EGFR WT, 6.00 to 7.00 against pEGFR in CUTO14 cells, 6.00 to 7.00 in experiment [1] and 6.00 to 7.00 in experiment [2].
Take `CC#CC(=O)N1CC[C@]1(C)COc1cnccc1-c1[nH]c2c(c1Nc1cccc(F)c1OC)C(=O)NCC2` [compound 307]: the pIC50 was 6.00 to 7.00 on Ba/F3 cells with EGFR WT, more than 7.00 on pEGFR in CUTO14 cells, more than 7.00 in experiment [1] and more than 7.00 in experiment [2].
Regarding `COc1c(F)cccc1Nc1c(-c2ccncc2C#CC(C)(C)NC(=O)C#CCN(C)C)[nH]c2c1C(=O)NCC2` [compound 465], the negative-log IC50 (pIC50) is 6.00 to 7.00 on Ba/F3 cells with EGFR WT, more than 7.00 against pEGFR in CUTO14 cells, more than 7.00 in experiment [1] and more than 7.00 in experiment [2].
Turning to `C=CC(=O)N1[C@@H](COc2cnccc2-c2[nH]c3c(c2Nc2cccc(Cl)c2OC)C(=O)NCC3)C[C@@H]1C` [compound 272], the pIC50 (at Ba/F3 cells with EGFR WT; on pEGFR in CUTO14 cells; in experiment [1]; in experiment [2]) was more than 7.00 each time.
Consider `CC#CC(=O)N1CC[C@@H]1COc1cnccc1-c1[nH]c2c(c1Nc1cccc(C(F)F)c1OC)C(=O)NCC2` [compound 446], for which the negative logarithm of the IC50 (pIC50) on Ba/F3 cells with EGFR WT was 6.00 to 7.00; against pEGFR in CUTO14 cells, more than 7.00; in experiment [1] it was more than 7.00; in experiment [2], more than 7.00.
Consider `C=CC(=O)NC1(C#Cc2cnccc2-c2[nH]c3c(c2Nc2cc(F)cc(Cl)c2OC)C(=O)NCC3)COC1` [compound 440], for which the pIC50 was 6.00 to 7.00 on Ba/F3 cells with EGFR WT, more than 7.00 at pEGFR in CUTO14 cells, more than 7.00 in experiment [1] and more than 7.00 in experiment [2].
On to `COc1c(F)cccc1Nc1c(-c2ccncc2C#C[C@@]2(C)CCCN2C(=O)/C=C/CN2CC(F)(F)C2)[nH]c2c1C(=O)NCC2` [compound 445], for which the negative logarithm of the IC50 (pIC50) is less than 6.00 on Ba/F3 cells with EGFR WT, 6.00 to 7.00 on pEGFR in CUTO14 cells, 6.00 to 7.00 in experiment [1] and 6.00 to 7.00 in experiment [2].
In the case of `COc1c(F)cccc1Nc1c(-c2ccncc2C#CC(C)(C)NC(=O)/C=C/CN2CCOCC2)[nH]c2c1C(=O)NCC2` [compound 391], the pIC50 at Ba/F3 cells with EGFR WT was less than 6.00; against pEGFR in CUTO14 cells it was 6.00 to 7.00; in experiment [1], 6.00 to 7.00; in experiment [2], 6.00 to 7.00.
Take `CC#CC(=O)N1CCOC[C@H]1COc1cnccc1-c1[nH]c2c(c1Nc1cccc(Cl)c1OC)C(=O)NCC2` [compound 429]: the negative-log IC50 (pIC50) was 6.00 to 7.00 at Ba/F3 cells with EGFR WT, 6.00 to 7.00 on pEGFR in CUTO14 cells, more than 7.00 in experiment [1] and 6.00 to 7.00 in experiment [2].
With `CC#CC(=O)N1CC[C@@H]1COc1cnccc1-c1[nH]c2c(c1Nc1cc(F)cc(F)c1OC)C(=O)NCC2` [compound 347], the negative-log IC50 (pIC50) on Ba/F3 cells with EGFR WT was 6.00 to 7.00; against pEGFR in CUTO14 cells it was more than 7.00; in experiment [1], more than 7.00; in experiment [2], more than 7.00.
As to `CC#CC(=O)N1CCOC[C@H]1COc1cnccc1-c1[nH]c2c(c1Nc1cccc(F)c1OC)C(=O)NCC2` [compound 292], the negative logarithm of the IC50 (pIC50) on Ba/F3 cells with EGFR WT was less than 6.00; against pEGFR in CUTO14 cells, 6.00 to 7.00; in experiment [1], 6.00 to 7.00; in experiment [2], 6.00 to 7.00.
`COc1c(Cl)cccc1Nc1c(-c2ccncc2C#CC(C)(C)NC(=O)/C=C/CN(C)C)[nH]c2c1C(=O)NCC2` [compound 388]: the negative logarithm of the IC50 (pIC50) at Ba/F3 cells with EGFR WT is 6.00 to 7.00; against pEGFR in CUTO14 cells it was more than 7.00; in experiment [1], more than 7.00; in experiment [2], more than 7.00.
With `C=CC(=O)N1CCOC[C@H]1COc1cnccc1-c1[nH]c2c(c1Nc1cccc(F)c1OC)C(=O)NCC2` [compound 190], the negative-log IC50 (pIC50) was 6.00 to 7.00 on Ba/F3 cells with EGFR WT, more than 7.00 at pEGFR in CUTO14 cells, more than 7.00 in experiment [1] and more than 7.00 in experiment [2].

By pIC50 is commonly meant −log10 of the IC50, conventionally taken in molar units.

The record behind these values is US20230364070A1, “PYRROLO[3,2-C]PYRIDIN-4-ONE DERIVATIVES USEFUL IN THE TREATMENT OF CANCER” (Scorpion Therapeutics, Inc., priority 2020, published 2023).
